According to patent US11485735B2, “Selective CDK4/6 inhibitor and preparation thereof” (Wuxi Shuangliang Biotechnology Co., Ltd., priority 2019, dated 2022):
pIC50: −log10 of the molar value. Counter-ions that a name gives are not always drawn.

Key:
CRBN = target: T1, CRBN (Homo sapiens, UniProt Q96SW2); test: In-vitro inhibition assay of CRBN activity (fluorescence polarization, Cy5-Thalidomide); format: binding; conditions: Cy5-Thalidomide 10 nM, CRBN 180 nM, 27° C., 60 min
T1 construct: purchased Wuxi Biortus Biosciences Co. Ltd
T1 sequence (Q96SW2 whole entry, species assumed): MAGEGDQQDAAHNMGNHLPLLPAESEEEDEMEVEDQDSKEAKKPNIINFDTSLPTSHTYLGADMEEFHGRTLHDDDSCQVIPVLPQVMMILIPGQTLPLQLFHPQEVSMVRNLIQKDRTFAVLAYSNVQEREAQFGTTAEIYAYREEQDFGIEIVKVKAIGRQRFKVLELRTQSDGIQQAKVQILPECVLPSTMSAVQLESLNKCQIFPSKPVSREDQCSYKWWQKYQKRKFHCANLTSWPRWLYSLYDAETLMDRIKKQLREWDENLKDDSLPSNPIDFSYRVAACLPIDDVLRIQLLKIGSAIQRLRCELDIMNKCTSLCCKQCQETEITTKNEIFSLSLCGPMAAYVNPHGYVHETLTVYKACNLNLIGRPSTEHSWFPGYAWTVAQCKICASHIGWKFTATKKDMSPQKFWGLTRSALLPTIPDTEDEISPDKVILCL
Protocol: The final volume for assay was 20 μL, and the reaction temperature was 27° C. CRBN was produced by Wuxi Biortus Biosciences Co. Ltd. The concentration of the kinase was determined by the optimization experiment, and the kinase was diluted with an assay buffer (50 mM Tris, pH 7.5, 100 mM NaCl, and 0.01% Pluronic acid) to obtain a corresponding kinase solution (2× concentration). The compound was dissolved in dimethyl sulfoxide (DMSO) to reach a concentration of 10 mM. […] 5 μL of the test compound solution was mixed with 5 μL of the substrate solution, and 10 μL of the kinase solution was added to the mixture. The mixture was incubated at 27° C. for 60 min. Each assay was conducted in at least two replicates. […].
The final concentrations of the reagents in the assay were as follows. […] The data of fluorescence polarization assay were read on TECAN infinite M1000. Data were calculated by using GraphPad Prism version 6.0, and IC50 values were obtained by adjusting the non-linear regression models of the dose response curves.

CDK9 = CDK9 (Homo sapiens, UniProt P50750); test: In-vitro kinase inhibitory activity, CDK9 (selectivity); format: biochemical; conditions: read-out: IC50 (half maximal inhibitory concentration, nM) CDK9
Sequence of CDK9 (P50750 whole entry, species assumed): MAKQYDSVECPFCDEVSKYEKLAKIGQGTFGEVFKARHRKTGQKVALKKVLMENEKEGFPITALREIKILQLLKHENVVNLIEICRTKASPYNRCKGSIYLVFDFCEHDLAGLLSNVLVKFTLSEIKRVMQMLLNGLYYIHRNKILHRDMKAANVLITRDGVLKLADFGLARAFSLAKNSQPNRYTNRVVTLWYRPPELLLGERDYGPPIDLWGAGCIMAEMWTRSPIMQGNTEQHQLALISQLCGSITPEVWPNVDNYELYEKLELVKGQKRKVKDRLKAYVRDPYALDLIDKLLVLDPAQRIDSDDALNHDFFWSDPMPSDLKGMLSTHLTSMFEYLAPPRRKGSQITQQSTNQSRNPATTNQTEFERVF
Sequence of CDK9 (O60563 whole entry partner, species assumed): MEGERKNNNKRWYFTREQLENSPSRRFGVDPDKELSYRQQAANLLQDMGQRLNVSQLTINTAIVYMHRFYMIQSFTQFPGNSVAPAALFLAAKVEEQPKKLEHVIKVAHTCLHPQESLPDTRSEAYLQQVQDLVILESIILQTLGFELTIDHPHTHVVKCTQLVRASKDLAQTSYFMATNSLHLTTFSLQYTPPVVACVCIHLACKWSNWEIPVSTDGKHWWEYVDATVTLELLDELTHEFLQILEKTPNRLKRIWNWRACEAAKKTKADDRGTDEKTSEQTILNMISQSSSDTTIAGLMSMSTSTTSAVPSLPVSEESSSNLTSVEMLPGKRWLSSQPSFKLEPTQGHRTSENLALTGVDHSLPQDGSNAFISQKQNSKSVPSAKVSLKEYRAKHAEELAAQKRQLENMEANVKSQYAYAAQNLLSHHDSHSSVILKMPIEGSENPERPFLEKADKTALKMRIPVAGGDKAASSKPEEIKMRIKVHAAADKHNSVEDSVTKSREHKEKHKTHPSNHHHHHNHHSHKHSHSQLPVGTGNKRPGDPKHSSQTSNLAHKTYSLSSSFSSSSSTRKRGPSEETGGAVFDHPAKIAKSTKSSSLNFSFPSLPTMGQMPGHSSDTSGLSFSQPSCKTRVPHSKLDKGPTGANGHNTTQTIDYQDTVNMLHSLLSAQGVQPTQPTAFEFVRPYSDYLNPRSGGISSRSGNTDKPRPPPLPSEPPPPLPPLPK

CDK4/CyclinD3 = target: T2, CDK4/CyclinD3 (Homo sapiens, UniProt P11802); test: In-vitro kinase inhibitory activity, CDK4/CyclinD3 (Caliper EZ Reader II mobility shift); format: biochemical; conditions: CDK4/CyclinD3 20 nM, ATP 2 mM, Peptide 1 μM, 27° C., 180 min; read-out: IC50 (half maximal inhibitory concentration, nM) CDK4
T2 construct: purchased Wuxi Biortus Biosciences Co. Ltd
T2 sequence (P11802 whole entry, species assumed): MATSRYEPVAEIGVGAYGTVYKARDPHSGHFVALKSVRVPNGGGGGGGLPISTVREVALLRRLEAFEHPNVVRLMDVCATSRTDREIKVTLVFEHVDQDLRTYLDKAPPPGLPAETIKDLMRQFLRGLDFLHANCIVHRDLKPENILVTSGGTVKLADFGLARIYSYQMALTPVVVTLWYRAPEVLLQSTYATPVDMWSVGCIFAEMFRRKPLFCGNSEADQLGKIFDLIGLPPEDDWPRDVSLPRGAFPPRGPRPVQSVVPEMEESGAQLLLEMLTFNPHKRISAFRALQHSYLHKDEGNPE
T2 sequence (P30281 whole entry partner, species assumed): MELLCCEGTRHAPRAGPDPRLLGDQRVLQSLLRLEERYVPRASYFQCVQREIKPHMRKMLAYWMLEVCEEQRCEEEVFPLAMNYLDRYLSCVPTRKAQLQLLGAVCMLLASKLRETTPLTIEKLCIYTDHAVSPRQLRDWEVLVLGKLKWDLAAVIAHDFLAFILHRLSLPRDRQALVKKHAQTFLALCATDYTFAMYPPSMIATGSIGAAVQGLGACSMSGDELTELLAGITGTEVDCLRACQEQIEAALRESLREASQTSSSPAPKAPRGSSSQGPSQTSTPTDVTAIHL
Protocol: The final volume for assay was 16 μL, and the reaction temperature was 27° C. CDK4/CyclinD3 was produced by Wuxi Biortus Biosciences Co. Ltd. The concentration of the kinase was determined by the results of the optimization experiment. The kinase was diluted with an assay buffer (50 mM Tris HCl pH 8.0, 0.01% Tween 20, 50 μg/mL BSA, and 5 mM MgCl2) to obtain a corresponding kinase solution (2.4× concentration). The compound was dissolved in dimethyl sulfoxide (DMSO) to reach a concentration of 10 mM. […] 2 μL of the test compound solution was mixed with 5 μL of the kinase solution, and the mixture was incubated for 10 min. 5 μL of the mixed solution of the polypeptide substrate and ATP was then added. The mixture was incubated at 27° C. for 180 min, and then the reaction was terminated by adding 4 μL of EDTA with a concentration of 120 mM to each sample. […] Each assay was conducted in at least two replicates.
(§1) The final concentrations of the reagents in the assay were as follows. […] The reaction mixture was analyzed on a Caliper EZ Reader II by electrophoretic separation of the fluorescent substrate and the phosphorylated product. Data were calculated by using GraphPad Prism version 6.0 and IC50 values were obtained by adjusting the non-linear regression models of the dose response curves.

CDK6/CyclinD3 = target: T3, CDK6/CyclinD3 (Homo sapiens, UniProt Q00534); test: In-vitro kinase inhibitory activity, CDK6/CyclinD3 (Caliper EZ Reader II mobility shift); format: biochemical; conditions: CDK6/CyclinD3 20 nM, ATP 2 mM, Peptide 1 μM, 27° C., 120 min; read-out: IC50 (half maximal inhibitory concentration, nM) CDK6
T3 construct: purchased Wuxi Biortus Biosciences Co. Ltd
T3 sequence (Q00534 whole entry, species assumed): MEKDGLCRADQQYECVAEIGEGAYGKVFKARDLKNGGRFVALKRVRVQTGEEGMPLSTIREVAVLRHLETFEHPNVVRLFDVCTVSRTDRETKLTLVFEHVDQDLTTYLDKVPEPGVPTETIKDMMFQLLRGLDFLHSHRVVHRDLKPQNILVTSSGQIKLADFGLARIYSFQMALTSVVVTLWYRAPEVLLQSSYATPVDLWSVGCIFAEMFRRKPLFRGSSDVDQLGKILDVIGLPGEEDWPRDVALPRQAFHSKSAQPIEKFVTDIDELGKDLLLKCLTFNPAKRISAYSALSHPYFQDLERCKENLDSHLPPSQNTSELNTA
T3 sequence (P30281 whole entry partner, species assumed): as the sequence (P30281 whole entry partner, species assumed) above
Protocol: The final volume for assay was 16 μL, and the reaction temperature was 27° C. […] The compound was dissolved in dimethyl sulfoxide (DMSO) to reach a concentration of 10 mM. […] 2 μL of the test compound solution was mixed with 5 μL of the kinase solution, and the mixture was incubated for 10 min. 5 μL of the mixed solution of the polypeptide substrate and ATP was then added. The mixture was incubated at 27° C. for 120 min, and then the reaction was terminated by adding 4 μL of EDTA with a concentration of 120 mM to each sample. […] Each assay was conducted in at least two replicates.
as §1

CDK2 = CDK2 (Homo sapiens, UniProt P24941); test: In-vitro kinase inhibitory activity, CDK2 (selectivity); format: biochemical; conditions: read-out: IC50 (half maximal inhibitory concentration, nM) CDK2
[1] = tested on: human breast cancer MCF-7 cells; test: Growth inhibition of tumor cells cultured in vitro, CellTiter-Glo, MCF-7; format: cell-based; conditions: MCF-7, 72 h, CellTiter-Glo
Source text: (§2) Test drugs: Compounds of the present disclosure. Tumor cell strains: human colon cancer COLO205 cells and human breast cancer MCF-7 cells.
(§3) The growth inhibitory effects on human tumor cells COLO205 and MCF-7 cultured in vitro were observed by using a CellTiter-Glo Luminescent Cell Viability Assay Kit (Promega, Cat. No. G7572). Human tumor cells COLO205 and MCF-7 were both purchased from the American Type Culture Collection.
(§4) CellTiter-Glo Luminescent Cell Viability Assay: The previous cell culture medium was discarded, and the tumor cells were rinsed twice with PBS. An appropriate amount of trypsin (VWR, Cat. No. 0458-25G) was added to digest the tumor cells until most of the cells turned round and were detached from the wall. The trypsin digestion was terminated by adding an RPMI-1640 medium (COLO205; Gibco, Cat. No. A10491-01) containing 10% fetal bovine serum (Hyclone, Cat. No. SV30160.03) and MEM medium (MCF-7; Gibco, Cat. No. 10370-021) containing 10% fetal bovine serum and 0.01 mg/mL insulin, and the cells were gently pipetted with a pipette to completely suspend the tumor cells. After cell counting, a tumor cell suspension was prepared using a complete culture medium and the final concentration was 6.7×10^4 cells/mL. 90 μL of the tumor cell suspension was seeded in each well of a 96-well culture plate (6000 cells/well). The plate was then placed in an incubator with 5% CO2 at 37° C. and incubated for 24 h. A test drug was added by using an Agilent Bravo Automated Liquid Handling Platform, and 10 μL of the sample was added in each well. The assay was conducted in triplicate for each group. A compound of the present disclosure was dissolved in DMSO (BioRoYee, Cat. No. AF0231), and then the resulting solution was diluted to 10 μM/L, 3.33 μM/L, 1.11 μM/L, 0.37 μM/L, 0.123 μM/L, 0.041 μM/L, 0.0137 μM/L, 0.0046 μM/L, and 0.0015 μM/L with the culture medium. The concentration of DMSO was lower than 0.1%, and a culture medium containing 0.1% DMSO was added to the well which was set as a vehicle control group. The 96-well plate was placed in an incubator with 5% CO2 at 37° C. and incubated for 72 h. The 96-well plate to be tested was equilibrated at room temperature for 30 min, and 100 μL of Cell Titer-Glo reagent was added to each well. The contents of each well were mixed in an orbital shaker for 2 min to induce cell lysis, and the plate was incubated at room temperature for 10 min to achieve a constant value of fluorescent intensity. Finally, the chemiluminescence intensity was detected by TECAN M1000. Data were processed with Graphpad Prism 6.0 software. The growth curve of the cells was plotted. The cell growth inhibition rate of a drug was calculated, and the half maximal inhibitory concentration (IC50) of the drug was determined.

[2] = tested on: human colon cancer COLO205 cells; test: Growth inhibition of tumor cells cultured in vitro, CellTiter-Glo, COLO205; format: cell-based; conditions: for IC50: Homo sapiens, COLO 205, 72 h, COLO205, 72 h, CellTiter-Glo
Source text: as §2, §3, §4

CC(=O)c1c(C)c2cnc(Nc3ccc(N4CCN(CC(=O)N5CCC(C(=O)N6CCN(c7ccc8c(c7)CN([C@H]7CCC(=O)NC7=O)C8=O)CC6)CC5)CC4)cn3)nc2n(C2CCCC2)c1=O [Compound 7, (S)-3-(5-(4-(1-(2-(4-(6-((6-acetyl-8-cyclopentyl-5-methyl-7-oxo-7,8-dihydropyrido[2,3-d]pyrimidin-2-yl)amino)pyridin-3-yl)piperazin-1-yl)acetyl)piperidin-4-carbonyl)piperazin-1-yl)-1-oxoisoindolin-2-yl)piperidine-2,6-dione]
pIC50 (CRBN): 5.85 | IC50 (CDK9): 9920 nM | IC50 (CDK4/CyclinD3): 54.7 nM | IC50 (CDK6/CyclinD3): 30 nM | IC50 (CDK2): 7480 nM

CC(=O)c1c(C)c2cnc(Nc3ccc(N4CCN(CCN5CCN(c6ccc7c(c6)CN(C6CCC(=O)NC6=O)C7=O)CC5)CC4)cn3)nc2n(C2CCCC2)c1=O (single isomer, unassigned) [Compound 1, 3-(5-(4-(2-(4-(6-((6-acetyl-8-cyclopentyl-5-methyl-7-oxo-7,8-dihydropyrido[2,3-d]pyrimidin-2-yl)amino)pyridin-3-yl)piperazin-1-yl)ethyl)piperazin-1-yl)-1-oxoisoindolin-2-yl)piperidine-2,6-dione]
pIC50 (CRBN): 5.52 | IC50 (CDK9): 4180 nM | IC50 (CDK4/CyclinD3): 38.8 nM | IC50 ([1]; Homo sapiens, MCF7, 72 h): > 10000 nM | IC50 (CDK6/CyclinD3): 21.3 nM | IC50 [2]: 45.7 nM | inhibitory effect on human colon cancer COLO205 cells (in words) ([2]; summary of the table): relatively good inhibitory effects | IC50 (CDK2): > 10000 nM

CC(=O)c1c(C)c2cnc(Nc3ccc(N4CCN(CCN5CCC(CC6CCN(c7ccc8c(c7)CN(C7CCC(=O)NC7=O)C8=O)CC6)CC5)CC4)cn3)nc2n(C2CCCC2)c1=O (centres unmarked) [Compound 11, 3-(5-(4-((1-(2-(4-(6-((6-acetyl-8-cyclopentyl-5-methyl-7-oxo-7,8-dihydropyrido[2,3-d]pyrimidin-2-yl)amino)pyridin-3-yl)piperazin-1-yl)ethyl)piperidin-4-yl)methyl)piperidin-1-yl)-1-oxoisoindolin-2-yl)piperidine-2,6-dione dihydrochloride]
IC50 (CDK9): 4440 nM | IC50 (CDK4/CyclinD3): 24.6 nM | IC50 ([1]; Homo sapiens, MCF7, 72 h): > 10000 nM | IC50 (CDK6/CyclinD3): 21.1 nM | IC50 [2]: 127 nM | IC50 (CDK2): 8200 nM

CC(=O)c1c(C)c2cnc(Nc3ccc(N4CCN(CCN5CCC(OC6CCN(c7ccc8c(c7)CN(C7CCC(=O)NC7=O)C8=O)CC6)CC5)CC4)cn3)nc2n(C2CCCC2)c1=O (centres unmarked) [Compound 9, 3-(5-(4-((1-(2-(4-(6-((6-acetyl-8-cyclopentyl-5-methyl-7-oxo-7,8-dihydropyrido[2,3-d]pyrimidin-2-yl)amino)pyridin-3-yl)piperazin-1-yl)ethyl)piperidin-4-yl)oxy)piperidin-1-yl)-1-oxoisoindolin-2-yl)piperidine-2,6-dione dihydrochloride]
IC50 (CDK9): 3510 nM | IC50 (CDK4/CyclinD3): 19.2 nM | IC50 ([1]; Homo sapiens, MCF7, 72 h): > 10000 nM | IC50 (CDK6/CyclinD3): 14.2 nM | IC50 [2]: 247 nM | IC50 (CDK2): > 10000 nM

CC(=O)c1c(C)c2cnc(Nc3ccc(N4CCN(CCN5CCC(CN6CCN(c7ccc8c(c7)CN(C7CCC(=O)NC7=O)C8=O)CC6)CC5)CC4)cn3)nc2n(C2CCCC2)c1=O (single isomer, unassigned) [Compound 3, 3-(5-(4-((1-(2-(4-(6-((6-acetyl-8-cyclopentyl-5-methyl-7-oxo-7,8-dihydropyrido[2,3-d]pyrimidin-2-yl)amino)pyridin-3-yl)piperazin-1-yl)ethyl)piperidin-4-yl)methyl)piperazin-1-yl)-1-oxoisoindolin-2-yl)piperidine-2,6-dione]
pIC50 (CRBN): 5.92 | IC50 (CDK9): 2850 nM | IC50 (CDK4/CyclinD3): 16.1 nM | IC50 (CDK6/CyclinD3): 14.5 nM | IC50 (CDK2): 9660 nM

Cc1nc2c(F)cc(-c3nc(Nc4ccc(CN5CCN(CC(=O)N6CCC(C(=O)N7CCN(c8ccc9c(c8)CN([C@H]8CCC(=O)NC8=O)C9=O)CC7)CC6)CC5)cn4)ncc3F)cc2n1C(C)C [Compound 6, (S)-3-(5-(4-(1-(2-(4-((6-((5-fluoro-4-(4-fluoro-1-isopropyl-2-methyl-1H-benzo[d]imidazol-6-yl)pyrimidin-2-yl)amino)pyridin-3-yl)methyl)piperazin-1-yl)acetyl)piperidin-4-carbonyl)piperazin-1-yl)-1-oxoisoindolin-2-yl)piperidine-2,6-dione]
pIC50 (CRBN): 5.60 | IC50 (CDK9): 946 nM | IC50 (CDK4/CyclinD3): 24.2 nM | IC50 (CDK6/CyclinD3): 42.4 nM | IC50 (CDK2): 1140 nM

CC(=O)c1c(C)c2cnc(Nc3ccc(N4CCN(CCN5CCN(c6c(F)cc7c(c6F)CN(C6CCC(=O)NC6=O)C7=O)CC5)CC4)cn3)nc2n(C2CCCC2)c1=O (centres unmarked) [Compound 22, 3-(5-(4-(2-(4-(6-((6-acetyl-8-cyclopentyl-5-methyl-7-oxo-7,8-dihydropyrido[2,3-d]pyrimidin-2-yl)amino)pyridin-3-yl)piperazin-1-yl)ethyl)piperazin-1-yl)-4,6-difluoro-1-oxoisoindolin-2-yl) piperidine-2,6-dione]
IC50 (CDK9): 6220 nM | IC50 (CDK4/CyclinD3): 27.4 nM | IC50 [1]: > 10000 nM | IC50 (CDK6/CyclinD3): 18.2 nM | IC50 [2]: 87.1 nM | IC50 (CDK2): > 10000 nM
